Consider 1 molecule from patent US20220401418A1, “TREATMENT OF MALARIA USING HISTONE DEACETYLASE (HDAC) INHIBITORS” (FOUNDATION FOR NEGLECTED DISEASE RESEARCH, priority 2019, published 2022).

One data set concerns P. falciparum. Kind of data set: In vivo efficacy in humanized SCID mouse model of P. falciparum malaria. The conditions noted are these: for reduction in parasitaemia: intra-peritoneal, humanized SCID mice. The text has this: In vivo efficacy assessed in humanized SCID mouse model of P. falciparum malaria.
Another data set deals with CYP 2D6 (Homo sapiens, UniProt P10635). Kind of data set: Cyp inhibition CYP 2D6. The class given is in vitro ADME. The text has this: (§1) Method Reference for Table 3: Chung T D Y et al. In Vitro and In Vivo Assessment of ADME and PK Properties during lead selection and lead optimisation-guidelines, benchmarks and rules of thumb. In: Assay Guidance Manual. 2015.
Chain of CYP 2D6 (P10635 whole entry, species assumed): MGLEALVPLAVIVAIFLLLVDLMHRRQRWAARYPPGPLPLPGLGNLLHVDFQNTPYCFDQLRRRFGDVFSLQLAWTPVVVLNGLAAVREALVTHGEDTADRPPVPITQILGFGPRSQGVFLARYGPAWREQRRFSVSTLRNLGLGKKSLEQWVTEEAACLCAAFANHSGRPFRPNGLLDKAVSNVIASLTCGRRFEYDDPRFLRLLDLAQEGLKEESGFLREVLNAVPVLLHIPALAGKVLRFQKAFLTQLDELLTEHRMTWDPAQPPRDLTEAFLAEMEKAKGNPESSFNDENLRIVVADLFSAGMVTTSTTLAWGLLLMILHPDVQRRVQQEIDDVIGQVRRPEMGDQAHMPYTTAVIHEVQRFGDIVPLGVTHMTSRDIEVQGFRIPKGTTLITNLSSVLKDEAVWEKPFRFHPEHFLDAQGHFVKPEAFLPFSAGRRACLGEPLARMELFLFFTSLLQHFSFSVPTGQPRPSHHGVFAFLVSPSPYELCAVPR
In the next data set the target is HERG (Homo sapiens, UniProt Q12809). Kind of data set: HERG binding. The conditions noted are these: summary statement on Table 3.
Chain of HERG (Q12809 whole entry): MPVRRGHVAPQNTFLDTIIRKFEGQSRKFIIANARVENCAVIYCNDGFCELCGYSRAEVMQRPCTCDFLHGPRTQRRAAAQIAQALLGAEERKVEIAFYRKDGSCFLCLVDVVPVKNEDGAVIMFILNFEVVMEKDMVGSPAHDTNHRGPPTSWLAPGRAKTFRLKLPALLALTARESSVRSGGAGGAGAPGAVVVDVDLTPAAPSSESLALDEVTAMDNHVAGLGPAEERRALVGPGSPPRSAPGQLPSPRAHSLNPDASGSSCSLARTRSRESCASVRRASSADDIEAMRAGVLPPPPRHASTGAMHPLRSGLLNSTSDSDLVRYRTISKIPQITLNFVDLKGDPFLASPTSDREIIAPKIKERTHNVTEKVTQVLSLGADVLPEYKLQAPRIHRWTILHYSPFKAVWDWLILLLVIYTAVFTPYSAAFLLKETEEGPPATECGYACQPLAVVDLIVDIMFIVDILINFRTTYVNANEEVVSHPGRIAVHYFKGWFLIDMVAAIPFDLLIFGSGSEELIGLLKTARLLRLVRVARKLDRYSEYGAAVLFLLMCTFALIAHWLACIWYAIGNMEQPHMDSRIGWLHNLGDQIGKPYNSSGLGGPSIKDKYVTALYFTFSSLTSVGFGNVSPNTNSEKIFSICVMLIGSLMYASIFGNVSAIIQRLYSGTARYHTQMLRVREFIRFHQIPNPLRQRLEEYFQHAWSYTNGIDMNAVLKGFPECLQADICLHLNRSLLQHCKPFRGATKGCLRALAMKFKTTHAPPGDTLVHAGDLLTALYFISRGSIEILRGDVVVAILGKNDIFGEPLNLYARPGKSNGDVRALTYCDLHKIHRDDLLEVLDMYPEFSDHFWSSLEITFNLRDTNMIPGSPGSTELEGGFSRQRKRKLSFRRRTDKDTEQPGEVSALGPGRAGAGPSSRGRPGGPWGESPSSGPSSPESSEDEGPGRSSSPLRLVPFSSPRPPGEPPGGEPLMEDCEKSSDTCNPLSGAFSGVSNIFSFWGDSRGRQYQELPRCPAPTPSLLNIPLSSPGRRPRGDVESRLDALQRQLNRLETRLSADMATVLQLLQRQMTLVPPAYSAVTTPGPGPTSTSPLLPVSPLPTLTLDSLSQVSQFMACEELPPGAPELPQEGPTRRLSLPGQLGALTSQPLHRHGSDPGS
Description: as §1

Another data set can be described thus: Plasma stability, mouse. The class given is in vitro ADME.
Description: as §1

Data set [1] in a line: Microsomal stability, RLM. It is filed as in vitro ADME. Particulars: Test Conc. 10 μM.
Description: as §1

The next data set in a line: Plasma stability, dog. The class given is in vitro ADME.
Description: as §1

Another data set addresses T1, Pf-HDAC1 (Plasmodium falciparum, UniProt Q7K6A1).
T1 construct: His-tag; FLAG-tag; purchased BPS Bioscience
T1 sequence (Q7K6A1 1-449): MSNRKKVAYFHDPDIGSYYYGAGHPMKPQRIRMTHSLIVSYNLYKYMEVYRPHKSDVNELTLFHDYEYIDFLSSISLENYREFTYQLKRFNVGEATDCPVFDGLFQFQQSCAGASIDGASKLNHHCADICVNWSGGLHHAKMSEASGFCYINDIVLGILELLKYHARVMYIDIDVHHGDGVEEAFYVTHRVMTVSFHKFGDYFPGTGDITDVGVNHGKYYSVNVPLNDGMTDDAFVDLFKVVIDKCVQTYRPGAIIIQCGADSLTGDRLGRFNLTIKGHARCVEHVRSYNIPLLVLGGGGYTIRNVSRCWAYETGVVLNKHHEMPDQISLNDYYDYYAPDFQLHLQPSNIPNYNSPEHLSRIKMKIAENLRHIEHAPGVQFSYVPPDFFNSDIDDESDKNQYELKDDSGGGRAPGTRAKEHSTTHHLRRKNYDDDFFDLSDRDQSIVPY
Put plainly: PfHDAC1 fluorescent activity assay. The class given is biochemical. The procedure: The fluorescence developed was measured with excitation at 350-380 nm and emission at 440-460 nm.

Another data set has as its system HepG2. Put plainly: Cytotoxicity HepG2. The class given is cell-based.
Description: as §1

The subject of data set [2] is Hu HDAC (HeLa nuclear extract). Put plainly: HDAC activity screening, fluorescence assay with HeLa nuclear extract. It is filed as biochemical, human. The conditions noted are these: HeLa nuclear extract as enzyme source. The procedure: HDAC inhibition screening was performed using a fluorescence-based assay with a fluorescent substrate (BocLys (Ac)-AMC Substrate). HeLa nuclear extract was used as the enzyme source.
The assay was performed in 96-well black microplates, and the total volume of the assay was set at 100 μl. […] The enzyme mixture was prepared by adding […] of the diluted enzyme (HeLa nuclear extract) to […] of HDAC buffer. From the enzyme mixture, 40 μl was taken and mixed with 10 μl of test compound (final concentration from 0.01 to 10 μM) or vehicle (control). The final mixture (50 μl) was added to each well which was then pre-incubated at 37° C. for 10 min. The HDAC reaction was started by adding 50 μl of HDAC substrate: Boc-Lys (Ac)-AMC (Anaspec, Inc Fremont, Calif., USA). […] The release of AMC was monitored by measuring the fluorescence at an excitation wavelength of 360 nm and an emission wavelength of 460 nm. Buffer and substrate alone served as blank.

In the next data set the test system is Plasma Protein. Kind of data set: Plasma protein binding, human. It is filed as in vitro ADME. Particulars: summary statement on Table 3, across species.
Description: as §1

In another data set the target is T2, CYP 1A2 (Homo sapiens, UniProt P05177).
T2 sequence (P05177 1-516): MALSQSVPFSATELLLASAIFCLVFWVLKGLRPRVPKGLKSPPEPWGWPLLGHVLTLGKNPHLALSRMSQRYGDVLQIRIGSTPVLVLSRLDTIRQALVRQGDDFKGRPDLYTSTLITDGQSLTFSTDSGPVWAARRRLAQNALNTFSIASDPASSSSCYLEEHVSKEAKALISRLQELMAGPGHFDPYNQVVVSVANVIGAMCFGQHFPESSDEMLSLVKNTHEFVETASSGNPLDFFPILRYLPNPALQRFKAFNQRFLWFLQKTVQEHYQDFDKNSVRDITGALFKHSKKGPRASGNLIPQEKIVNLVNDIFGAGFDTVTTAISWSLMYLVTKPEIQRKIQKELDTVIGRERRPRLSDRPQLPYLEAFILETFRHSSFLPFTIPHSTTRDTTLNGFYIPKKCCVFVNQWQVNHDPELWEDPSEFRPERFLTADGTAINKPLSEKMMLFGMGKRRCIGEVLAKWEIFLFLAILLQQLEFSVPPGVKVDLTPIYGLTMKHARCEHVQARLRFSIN
Kind of data set: Cyp inhibition CYP 1A2. It is filed as in vitro ADME. Particulars: summary statement on Table 3, all CYP isoforms tested.
Description: as §1

The nature of data set [3]: Microsomal stability, HLM. The class given is in vitro ADME.
Description: as §1

In the next data set the target is CYP 3A4 (Homo sapiens, UniProt P08684). Put plainly: Cyp inhibition CYP 3A4. The class given is in vitro ADME.
Chain of CYP 3A4 (P08684 whole entry, species assumed): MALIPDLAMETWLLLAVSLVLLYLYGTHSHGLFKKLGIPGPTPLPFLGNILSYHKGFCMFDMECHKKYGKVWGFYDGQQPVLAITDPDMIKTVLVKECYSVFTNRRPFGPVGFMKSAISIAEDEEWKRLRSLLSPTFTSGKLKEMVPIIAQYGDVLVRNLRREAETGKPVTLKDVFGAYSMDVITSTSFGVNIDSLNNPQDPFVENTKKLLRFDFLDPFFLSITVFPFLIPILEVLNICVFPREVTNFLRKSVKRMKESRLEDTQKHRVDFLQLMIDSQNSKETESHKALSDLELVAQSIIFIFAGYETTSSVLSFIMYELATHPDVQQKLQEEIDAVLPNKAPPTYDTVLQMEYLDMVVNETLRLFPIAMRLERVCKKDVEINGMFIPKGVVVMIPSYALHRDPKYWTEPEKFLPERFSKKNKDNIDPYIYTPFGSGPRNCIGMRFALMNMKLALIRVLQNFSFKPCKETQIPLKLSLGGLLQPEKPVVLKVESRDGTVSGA
Description: as §1

Another data set can be described thus: Plasma stability, human. The class given is in vitro ADME.
Description: as §1

The nature of the next data set: Plasma stability, rat. It is filed as in vitro ADME.
Description: as §1

Data set [4] relates to Plasmodium falciparum 3D7. Put plainly: Plasmodium falciparum asexual blood-stage (ABS) assay. The class given is cell-based. The procedure:
Plasmodium falciparum 3[…]. falciparum asexual blood-stage (ABS) assay, for which the cells were resuscitated from the stabilate and maintained at 5% haematocrit. Red blood cells obtained from the hospital were used to maintain the culture at 1% parasitaemia while screening. Plasmodium falciparum: 3D7 cells were used as a target strain for the assay. Mefloquine (Sigma-Aldrich) was used as a standard inhibitor. At day 1, […] of 10 mM mefloquine was added to columns 12 and 24 of the sterile 384-well black, clear-bottom, cell culture assay plates followed by compound curves which were added using Echo. The P. falciparum 3D7 cells were counted and 20 ml of culture was prepared at 5% haematocrit, 0.3% parasitaemia (as one batch, i.e., 12 plates, prepare 260 ml, to allow for WellMate prime volume) for each plate. From this, 50 μl of culture was added to all wells on all plates using WellMate with small bore tubing on full (S-1) speed. […] The plates were read on Victor plate reader using '384sybrgreen' protocol (excitation 485 nm, emission 528 nm) after which the plate contents were aspirated into 5% Virkon, and disposed of after autoclaving. Percentage inhibition for each test compound was calculated using the following equation: % Inhibition=100-(TEST COMPOUND-BLANK)/(NO INHIBITION-BLANK)*100)

Data set [5] is classed as in vitro ADME. Particulars: mouse, microsomes, 2 h, 10 μM.
Description: as §1

Structures are written as SMILES. Like-named read-outs stand apart in the source and are kept apart here.

One may read the IC50 as the midpoint of a concentration-inhibition curve. Regarding `O=C(NO)c1ccc(Cn2cc(-c3ccc(CN4CCCC4)cc3)nn2)cc1` [FNDR-20123, N-hydroxy-4-((4-(4-(pyrrolidin-1-ylmethyl)phenyl)-1H-1,2,3-triazol-1-yl)methyl)benzamide], the reduction in parasitaemia turned out to be 98% in the data set with P. falciparum (50 mg/kg) and 99% with P. falciparum (100 mg/kg). In addition, in the data set on P. falciparum (oral, 50 mg/kg body weight for 4 days, humanized SCID mouse), the reduction in parasitemia is given as 67%. Also, the IC50 against CYP 2D6 is 28000 nM; against Pf-HDAC1, 31 nM; in data set [2], approximately 3 nM; in data set [2] (listed as 20123), 3 nM; against CYP 3A4 it was 27000 nM; in data set [4] (Plasmodium falciparum, P. falciparum 3D7, 72 h, read-out: Anti-Malarial Activity Asexual Blood Stage IC50) it was 41 nM. Also, on HERG, the “hERG liability” value is on record as “no hERG liability”. For the same molecule, the “Plasma Stability (% remaining at 240 min)” value was determined as 89.16% in “Plasma stability, mouse”; 97.72% in the data set “Plasma stability, dog”; 98.94% in the data set “Plasma stability, human”; 88.90% in the data set “Plasma stability, rat”. The “Microsomal Stability (% remaining at 120 min)” value in data set [1] is listed as 74.56%; in data set [3] (HLM, Test Conc. 10 μM, 120 min) it was 85.31%; in data set [5], 76.15%. For the same molecule, in the data set with HepG2, the “Cytotoxicity HepG2 (% @ 100 μM)” value is listed as 12.6%. The “plasma protein binding” value in the data set on Plasma Protein is given as “low”. The “inhibition of the CYP isoforms tested” value against CYP 1A2 was “no inhibition”. In addition, in [3] (summary statement on Table 3, all microsome species), the “liver microsomal stability” value was “good”. Further, the “anti-malarial activity in library screen” value in data set [4] (screen of proprietary compound library) is given as “potent anti-malarial activity”.
